In patent US20190292559A1, “NUCLEOTIDE SEQUENCE FOR IMPROVING RESISTANCE AGAINST PLANT PATHOGENS” (CONSEJO SUPERIOR DE INVESTIGACIONES CIENTIFICAS (CSIS), priority 2016, published 2019):

Assays:
JAZ2 protein = target: T1, JAZ2 protein (Arabidopsis thaliana, UniProt O04197+Q9S7M2); experiment: JAZ2 protein stability (35S JAZ2-GUS staining); format: cell-based; conditions: JAZ2-GUS transgenic seedlings, 3 h
T1 construct: expressed in transfected cells
T1 sequence (Q9S7M2 1-249): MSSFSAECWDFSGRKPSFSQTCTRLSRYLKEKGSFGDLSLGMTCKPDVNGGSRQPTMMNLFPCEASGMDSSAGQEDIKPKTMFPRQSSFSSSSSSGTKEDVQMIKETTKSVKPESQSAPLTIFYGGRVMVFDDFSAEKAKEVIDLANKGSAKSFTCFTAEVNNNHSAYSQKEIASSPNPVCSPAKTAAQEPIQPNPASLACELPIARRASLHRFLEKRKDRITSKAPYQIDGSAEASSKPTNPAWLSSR
T1 sequence (O04197 1-592): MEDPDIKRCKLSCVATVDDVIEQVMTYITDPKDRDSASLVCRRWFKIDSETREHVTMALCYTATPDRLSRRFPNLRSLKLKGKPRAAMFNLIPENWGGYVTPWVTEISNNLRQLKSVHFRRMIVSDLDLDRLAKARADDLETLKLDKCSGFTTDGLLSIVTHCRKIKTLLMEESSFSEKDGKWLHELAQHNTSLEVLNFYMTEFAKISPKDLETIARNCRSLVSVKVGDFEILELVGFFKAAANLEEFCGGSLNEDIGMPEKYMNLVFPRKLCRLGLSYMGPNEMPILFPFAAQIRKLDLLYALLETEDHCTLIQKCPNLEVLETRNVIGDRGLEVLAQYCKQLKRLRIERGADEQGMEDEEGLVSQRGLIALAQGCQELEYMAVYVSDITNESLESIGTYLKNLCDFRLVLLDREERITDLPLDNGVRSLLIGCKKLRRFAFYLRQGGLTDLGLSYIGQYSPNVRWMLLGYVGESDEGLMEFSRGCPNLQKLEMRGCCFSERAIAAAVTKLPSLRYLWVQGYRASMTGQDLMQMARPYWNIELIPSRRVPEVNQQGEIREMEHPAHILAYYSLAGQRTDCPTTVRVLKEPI
T1 sequence (Q39255 1-160 partner): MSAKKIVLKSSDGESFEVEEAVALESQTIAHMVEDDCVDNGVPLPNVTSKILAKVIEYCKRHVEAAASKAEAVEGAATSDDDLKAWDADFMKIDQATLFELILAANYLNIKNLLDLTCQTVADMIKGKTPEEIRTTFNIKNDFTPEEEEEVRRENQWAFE
Description: For JAZ promoter:GUS expression experiments, five to seven days-old seedlings were treated with mock solution or 50 μM JA for 2 h and GUS stained as previously described (Fernandez-Calvo, P. et al. Plant Cell. 2011; 23(2): 701-715). For JAZ2 protein stability experiments, seven to nine days-old seedlings were treated with mock solution or 50 nM COR for 3 h. Then, samples were placed in staining solution containing 50 mM phosphate buffer, pH 7, 0.1% (v/v) Triton X-100 (Sigma-Aldrich), 2 mM 5-bromo-4-chloro-3-indolyl b-D glucuronic acid (X-Gluc, Glycosynth), 1 mM potassium-ferrocyanide (Sigma-Aldrich), and 1 mM potassium-ferricyanide (Sigma-Aldrich) and incubated at 37° C. overnight. After staining, the tissue was soaked several times in 75% ethanol and kept in 5% glycerol until being photographed with a Leica DMR UV/VIS microscope.

stomata guard cells = experiment: Stomatal aperture measurements (MAMP-induced closure, COR-induced reopening); format: cell-based, Arabidopsis; conditions: leaves incubated with MAMPs and 2 μM COR simultaneously
Description: Whole leaves from 4- to 6-week-old Arabidopsis plants were collected and exposed to white light for 1.30 hours while floating in a solution containing 50 mM KCl, 10 μm CaCl2, and 10 mm MES-KOH pH=6.1 (opening stomata buffer) with moderate shaking (50 rpm) to induce homogenous stomatal aperture among all Arabidopsis lines to compare. To do the MAMP-induced closure assays, the previous solution was removed and whole leaves were immersed in opening stomata buffer containing Pto DC3000 MAMP extracts at OD600=1,5 (7,5×10^8 cfu/ml), 2 μM of coronatine or a mock solution. Samples were further incubated under the same previous conditions for 4-5 hours. Then, leaves were rapidly peeled and abaxial epidermal peels were placed on cover slips and observed with a microscope (Leica DMR). Stomatal aperture (width/length) was measured using ImageJ software. Error bars represent standard error of the mean (SEM) (n=20). Stomatal experiments were repeated at least three independent times and representative results are shown.
We next analyzed the ability of JAZ2-3 to close stomata upon microbial perception and reopen it in the presence of COR. […] Typically, Pto DC3000 MAMPs were used at optical density at 600 nm OD600=1,5 (7,5×10^8 cfu/ml) for incubation with leaves (Stomatal Aperture Measurements) or Arabidopsis seedlings (Quantitative RT-PCR). […]

JAZ2 promoter = experiment: pJAZ2:GUS promoter expression (GUS staining); format: cell-based, Arabidopsis; conditions: 50 μM JA, 2 h, young seedlings
Description: (§1) Transgenic Arabidopsis lines expressing pJAZ:GUS promoter fusions were obtained by cloning the corresponding pJAZ PCR products (pJAZ1 fw cacc[…] [SEQ ID NO: 29]; pJAZ1 rev […] [SEQ ID NO: 30]; pJAZ2 fw cacc[…] [SEQ ID NO: 31]; pJAZ2 rev […] [SEQ ID NO: 32]; pJAZ3 fw cacc[…] [SEQ ID NO: 33]; pJAZ3 rev […] [SEQ ID NO: 34]) into the pENTR™/D-TOPO® system (Invitrogen) and then transferring them to pGWB3. Agrobacterium strain GV3101, containing these constructs, was used to transform Col-0 plants by floral dipping (Clough, S. J. and Bent, A. F. Plant J. 1998, 16(6): 735-743). Several transgenic lines were checked for Kanamycin and Hygromycin resistance and lines carrying one insertion were driven to homozygosis and used for further analysis. pJAZ2:GUS in coi1-30 background was generated by crossing the corresponding parental single homozygous lines. Arabidopsis lines expressing pMYC3:GUS and pMYC4:GUS promoter fusions, were previously reported (Fernandez-Calvo, P. et al. Plant Cell. 2011, 23(2): 701-715). The lines JAZ2-3 (RIKEN_ 13-5433-1) and JAZ2ΔJas (GABI_169B06) were obtained from the Nottingham Arabidopsis Stock Centre. The line JAZ1ΔJas (SEQ ID NO: 61) was obtained from an Arabidopsis activation tagging population (Weigel, D. et al. Plant Physiol. 2000, 122(4): 1003-1013). […]

JAZ1 promoter = experiment: pJAZ1:GUS promoter expression (GUS staining); format: cell-based, Arabidopsis; conditions: 50 μM JA, 2 h
Description: as §1

SMILES	COR concentration inducing rapid degradation of JAZ2 protein at guard cells (JAZ2 protein) [nM]	COR-induced stomata reopening (stomata guard cells)	JAZ2 expression (pJAZ2:GUS) after JA treatment (JAZ2 promoter)	JAZ1 expression (pJAZ1:GUS) after JA treatment (JAZ1 promoter)
CC[C@H]1C=C(C(=O)N[C@@]2(C(=O)O)C[C@@H]2CC)[C@H]2CCC(=O)[C@H]2C1 [COR, coronatine]	≤ 50	triggered COR-induced stomata reopening in JAZ2-3 and WT plants, but not in coi1-30		
CC/C=C\C[C@H]1C(=O)CC[C@@H]1CC(=O)O [JA, jasmonic acid]			induced it in roots and mesophyll cells of young seedlings	strongly induced JAZ1 in roots and mesophyll cells
